# Experimental data published in patent publication US7893068B2, “Physiologically active substances” (Mercian Corporation, priority 2002, dated 2011).
# Like-named read-outs stand apart in the source and are kept apart here.
# What was measured:
# [1] = Body weight loss (acute toxicity) in the WiDr tumor model; assay type: in vivo, nude mice; conditions: intravenous 5 consecutive days, body weight relative to Day 1
# Source text: (§1) In order to study solid tumor growth inhibitory activities of the compounds of the formula (I) in vivo, WiDr human colon cancer cells were implanted subcutaneously into the flanks of nude mice. […]. The animals were grouped so that the average of the volumes of the respective groups became uniform, when it reached about 100 mm^3. Control group was made up of 10 mice and 11107D-administering groups were made up of 5 mice. The derivatives were administered for the administering groups for 5 consecutive days by intravenous injection so as to be any of 0.625 mg, 1.25 mg, 2.5 mg, 5 mg and 10 mg/kg/day, and a vehicle was administered to the control group. The tumor volumes on Day 15 were measured, and relative tumor volume ratios (T/C %) were determined setting the tumor volume of the control group as 100%. The body weights on Day 1, Day 5, Day 8, Day 12 and Day 15 (or 16) were measured, and relative body weight variations were determined setting the body weight on Day 1 as 100%. The relative body weight ratios on the day where the body weight reached the minimum were defined as the minimum relative weight ratios and are shown in Table 3.
# [2] = system: WiDr human colon cancer cells; assay: Growth inhibitory activities on WiDr human colon cancer cells (MTT); assay type: cell-based; conditions: 72 h, three days incubation
# Experimental: WiDr human colon cancer cells cultured in DULBECCO-modified eagle medium (DMEM; manufactured by SIGMA Co., Ltd.) containing 10% fetal calf serum, penicillin (100 unit/mL) and streptomycin (100 μg/mL) were dispensed in 96-well plates by 2×10^3 cells/well. After culturing overnight in a CO2 incubator, 20 μL of the above-mentioned incubation solution containing the test compound diluted with 3-fold succession was added, followed by incubation. After three days, 50 μL of 3.3 mg/mL MTT solution was added, followed by culturing for further one hour. Then, formazan formed by the reduction by the action of living cells was extracted with 100 μL of DMSO, the absorbance (A540/A660) was determined and was set as the index of the number of living cells.
# The concentrations of the compounds of the formula (I) at which the growth of WiDr human colon cancer cells are inhibited 50% were determined.
# [3] = system: VEGF promoter; assay: VEGF transcription-suppressing activity (VEGF promoter-PLAP reporter, U251/1-8 cells, hypoxia); assay type: cell-based; conditions: Homo sapiens, read-out: VEGF transcription-suppressing activities (IC50: nM)
# Source text: In order to prepare reporter system reflecting transcription from VEGF promoter, VEGF promoter sequence was cloned, and inserted in secretory alkaline phosphatase (PLAP) vector to construct reporter vector.
# In order to obtain the promoter region of human VEGF, VEGF genomic DNA was cloned from phage library. PCR primers having the sequences described in Sequence Numbers 1 and 2 were designed based on VEGF cDNA (GenBank accession number: X62568) and a fragment having about 340 bp was obtained by carrying out PCR. Human genomic phage library (Human genomic library, Clontech Co.) was screened using this as a probe to obtain VEGF genomic DNA. The DNA was digested by EcoRI, and the resultant fragments were inserted in the EcoRI site of pUC18. Finally, pUC18-VEGFA containing about 5.4 kb of VEGF 5′ flanking region was obtained. The pUC18-VEGFA was digested by KpnI/NheI, VEGF promoter region of about 2.3 kb obtained was inserted in the multi cloning site KpnI/NheI of secretory alkaline phosphatase (PLAP) vector (Goto et al, Mol. Pharmacol., 49, 860-873, 1996), and thus, VEGF-PLAP vector was constructed.
# The above-mentioned VEGF-PLAP vector was transfected in the U251 cell cultured in the DULBECCO-modified eagle medium (DMEM; manufactured by SIGMA Co., Ltd.) containing 10% fetal calf serum, and the cells were cultured in the presence of 1 mg/mL G418 (Merck Co.) to establish G418 resistant stable clone (U251/1-8 cell).
# It was confirmed that U251/1-8 cell secreted PLAP under hypoxic condition (2% O2 incubator) in the same manner as in the report (Cell. Mol. Biol. Res. 40, 35-39, 1994) and was a reporter system reflecting the transcription from VEGF promoter. The screening of the compound suppressing VEGF production which was induced by hypoxic stimulation was carried out below using the clone.
# In order to remove the influence of alkaline phosphates in serum, U251/1-8 cells were rinsed twice with the adequate amount of PBS (Phosphate buffered saline), diluted in the DMEM medium containing 10% of serum in which alkaline phosphates was inactivated by the treatment of 65° C. for 20 min., and dispensed in 96-well plates by 4×10^4 cells/180 μL.
# After culturing at 37° C. overnight in a CO2 incubator (5% CO2), 20 μL of the above-mentioned incubation solution containing the test compound diluted with 3-fold succession was added, and then they were incubated in a hypoxic (2% […]) incubator for 18 hours. With respect to the PLAP activity in the culture supernatants, 10 μL of the supernatants was added to 50 μL of 0.28 M Na2CO3—NaHCO3 buffer solution (pH 10.0, 8.0 mM MgSO4), and finally 50 μL of alkaline phosphatase substrate (LUMISTEIN, Genomescience Co.) was added. After reacting for one hour, the alkaline phosphatase activity of the PLAP was measured by detecting the chemical luminescence by a micro plate reader (Perkin-Elmer Co.). The PLAP activity under normoxia was set as 0%, the PLAP activity of cell which was treated under hypoxia was set as 100%, and the concentration suppressing the PLAP activity by 50% was set as the IC50 value of PLAP. The IC50 values of 11107D derivatives shown in Examples were measured, and the IC50 values of representative 11107D derivatives are shown in Table 1.
# [4] = system: WiDr human colon cancer cells; assay: Solid tumor growth inhibitory activities, WiDr human colon tumor model in nude mice; assay type: in vivo; conditions: Mus musculus, 360 h
# Source text: as §1
# [5] = Stability in an aqueous solution (HPLC residual ratio); conditions: for Peak area (mAU × sec) after 24 hours / The residual ratios (%): Britton-Robinson's buffer pH 7, 25° C., 24 hours; for Peak area (mAU × sec) initial: Britton-Robinson's buffer pH 7, before incubation
# Experimental: The compounds of the formula (I) were dissolved in DMSO in concentrations of 10 to 20 mM, and these were diluted about 500 folds with Britton-Robinson's buffer solution of pH 7. Each of the solutions as sample solutions was incubated at 25° C. for 24 hours.
# The sample solutions were analyzed by high performance liquid chromatography before and after incubation, and the residual ratios of the tested substances in the sample solutions after incubation were determined from the peak areas of the obtained chromatograms.
# [6] = iv, read-out: Growth inhibitory activities in the WiDr human solid tumor model (T/C %)
SMILES,the minimum relative weight ratios ([1]; Dose 1.25 mg/kg),IC50 [2] [nM],"IC50 ([3]; U-251, 18 h) [nM]","response vs control in vivo at 1.25 mg/kg [4, 6] [%]",the minimum relative weight ratios ([1]; Dose 5.0 mg/kg),Peak area (mAU × sec) after 24 hours [5] [mAU × sec],The residual ratios (%) [5] [%],Peak area (mAU × sec) initial [5] [mAU × sec],"response vs control in vivo at 5 mg/kg [4, 6] [%]",the minimum relative weight ratios ([1]; Dose 2.5 mg/kg),"response vs control in vivo at 2.5 mg/kg [4, 6] [%]","IC50 ([3]; U-251, U251/1-8 cells, hypoxic incubator 18 hours, PLAP activity) [nM]","response vs control in vivo at 5 mg/kg ([4]; Dose 5.0 mg/kg, intravenous injection 5 consecutive days, tumor volume Day 15, read-out: Growth inhibitory activities in the WiDr human solid tumor model (T/C %)) [%]"
"CCC(O)C(C)C1OC1CC(C)(O)/C=C/C=C(\C)C1OC(=O)CC(O)CCC(C)(O)C(OC(=O)N(C)CCN(C)C)/C=C/C1C (stereo not drawn) [Compound 6, (8E,12E,14E)-7-(N-(2-(N′,N′-Dimethylamino)ethyl)-N-methylcarbamoyloxy)-3,6,16,21-tetrahydroxy-6,10,12,16,20-pentamethyl-18,19-epoxytricosa-8,12,14-trien-11-olide]",0.81,12.5,32,35,–,–,–,–,–,–,–,–,–
"CCC(O)C(C)C1OC1CC(C)(O)/C=C/C=C(\C)C1OC(=O)CC(O)CCC(C)(O)C(OC(=O)N2CCCN(C)CC2)/C=C/C1C (stereo not drawn) [Compound 9, (8E,12E,14E)-3,6,16,21-Tetrahydroxy-6,10,12,16,20-pentamethyl-7-((4-methylhomopiperazin-1-yl)carbonyl)oxy-18,19-epoxytricosa-8,12,14-trien-11-olide]",–,5.5,12.9,–,0.86,5476,96.2,5690,10,–,–,–,–
"CCCCN1CCN(C(=O)OC2/C=C/C(C)C(/C(C)=C/C=C/C(C)(O)CC3OC3C(C)C(O)CC)OC(=O)CC(O)CCC2(C)O)CC1 (stereo not drawn) [Compound 16, (8E,12E,14E)-7-((4-Butylpiperazin-1-yl)carbonyl)oxy-3,6,16,21-tetrahydroxy-6,10,12,16,20-pentamethyl-18,19-epoxytricosa-8,12,14-trien-11-olide]",–,2,3.1,–,–,–,–,–,–,0.90,28,–,–
"CCC(O)C(C)C1OC1CC(C)(O)/C=C/C=C(\C)C1OC(=O)CC(O)CCC(C)(O)C(OC(=O)N2CCN(CC)CC2)/C=C/C1C (stereo not drawn) [Compound 21, (8E,12E,14E)-7-((4-Ethylpiperazin-1-yl)carbonyl)oxy-3,6,16,21-tetrahydroxy-6,10,12,16,20-pentamethyl-18,19-epoxytricosa-8,12,14-trien-11-olide]",–,3.2,6.1,–,–,–,–,–,–,0.80,28,–,–
"CCC(O)C(C)C1OC1CC(C)(O)/C=C/C=C(\C)C1OC(=O)CC(O)CCC(C)(O)C(OC(=O)N2CCC(N3CCCCC3)CC2)/C=C/C1C (stereo not drawn) [Compound 22, (8E,12E,14E)-3,6,16,21-Tetrahydroxy-6,10,12,16,20-pentamethyl-7-((4-(piperidin-1-yl)piperidin-1-yl)carbonyl)oxy-18,19-epoxytricosa-8,12,14-trien-11-olide]",–,14.6,25.6,–,0.74,4514,95.8,4713,39,–,–,–,–
"CCC(O)C(C)C1OC1CC(C)(O)/C=C/C=C(\C)C1OC(=O)CC(O)CCC(C)(O)C(OC(=O)N2CCN(C3CCCCC3)CC2)/C=C/C1C (stereo not drawn) [Compound 26, (8E,12E,14E)-7-((4-Cyclohexylpiperazin-1-yl)carbonyl)oxy-3,6,16,21-tetrahydroxy-6,10,12,16,20-pentamethyl-18,19-epoxytricosa-8,12,14-trien-11-olide]",–,1.6,2.8,–,–,–,–,–,–,0.93,42,–,–
"CCC(O)C(C)C1OC1CC(C)(O)/C=C/C=C(\C)C1OC(=O)CC(O)CCC(C)(O)C(OC(=O)N2CCN(C(C)C)CC2)/C=C/C1C (stereo not drawn) [Compound 44, (8E,12E,14E)-3,6,16,21-Tetrahydroxy-7-((4-isopropylpiperazin-1-yl)carbonyl)oxy-6,10,12,16,20-pentamethyl-18,19-epoxytricosa-8,12,14-trien-11-olide]",–,2.1,3.9,–,0.89,3820,94.8,4031,19,–,–,–,–
"CCC(O)C(C)C1OC1CC(C)(O)/C=C/C=C(\C)C1OC(=O)CC(O)CCC(C)(O)C(OC(=O)N2CCN(C3CCCCCC3)CC2)/C=C/C1C (stereo not drawn) [Compound 45, (8E,12E,14E)-7-((4-Cycloheptylpiperazin-1-yl)carbonyl)oxy-3,6,16,21-tetrahydroxy-6,10,12,16,20-pentamethyl-18,19-epoxytricosa-8,12,14-trien-11-olide]",–,0.7,–,–,0.90,5024,95.0,5291,–,–,–,1.9,20
"CCC(O)C(C)C1OC1CC(C)(O)/C=C/C=C(\C)C1OC(=O)CC(O)CCC(C)(O)C(OC(=O)N(C)CCN(CC)CC)/C=C/C1C (stereo not drawn) [Compound 75, (8E,12E,14E)-7-(N-(2-(N′,N′-Diethylamino)ethyl)-N-methylcarbamoyloxy)-3,6,16,21-tetrahydroxy-6,10,12,16,20-pentamethyl-18,19-epoxytricosa-8,12,14-trien-11-olide]",–,4.1,9.1,–,0.82,2478,95.5,2594,17,–,–,–,–
